Tests used:
[1] = test system: neutrophils from COPD patients; assay: CXCL8 release from neutrophils obtained from COPD patients; assay type: cell-based; settings: Homo sapiens, Neutrophil; read-out: REC50, TNFα-induced CXCL8 in neutrophils from COPD patients
Procedure: The effects of treatment on CXCL8 release from neutrophils obtained from COPD patients were evaluated by an ELISA assay. All patients were recruited by Quintiles Limited (London, UK), and blood samples were delivered to Respivert Ltd. This study was approved by the local Ethics Committee, and all subjects gave written informed consent. Whole blood (30 mL) was mixed gently with ACD (5 mL; comprising: 7.36 g citric acid, 14.71 g sodium citrate, 9.91 g dextrose in 250 ml sterile, double distilled water) and 6% dextran (15 mL; diluted in 0.9% NaCl) to remove the red blood cells. The tubes were incubated at RT for 45 min, and the supernatant (white cell rich fraction) was then collected, leaving the red blood cells.
This fraction was centrifuged (10 min at 1200 rpm, 4° C.) with low braking. The supernatant was aspirated and the pellet was re-suspended in ice-cold, sterile double distilled H2O (10 mL), and 0.6 M KCl (4 mL) was added 30 seconds later. […]
Neutrophils were pre-incubated with test compounds or with DMSO vehicle for 1 hr and then stimulated with TNFα (10 ng/mL). Cell free supernatant was collected at 3 hr after TNFα stimulation, and CXCL8 was measured by ELISA using DuoSet ELISA development kit (R&D systems, Abingdon, UK). The IC50 values reported were determined from concentration-inhibition curves using XL-Fit (IDBS, Guildford, UK).

[2] = test system: LPS-induced airway neutrophilia in rats; assay: LPS-induced airway neutrophil accumulation in rats; assay type: in vivo
Procedure: Non-fasted rats were dosed with either vehicle or the test compound by intra-tracheal administration (dose volume 100 μL) at time points T=−2 h, −8 h, or −12 h with respect to the start of LPS treatment. The LPS solution (0.3 mg/mL) was aerosolised using a De Vibliss ultrasonic nebuliser 2000 (7 mL during 30 min). At eight hr after LPS challenge, the trachea was cannulated and bronchoalveolar lavage fluid (BALF) extracted by infusing and then withdrawing PBS (1 mL) into the lungs via the tracheal catheter. This procedure was repeated to provide approximately 2 mL of lavage fluid.
Total cell numbers in the BALF samples were measured using a Countess automated cell counter (Invitrogen). Cytospin smears of the BALF samples were prepared by centrifugation at 1200 rpm for 2 min at RT and stained using a DiffQuik stain system (Dade Behring) for differential cell counts. Cells were counted using oil immersion microscopy. Data are expressed as neutrophil number of cells per mL of BALF (mean±S.E.M).

[3] = test system: ovalbumin-induced airway eosinophilia and neutrophilia in ovalbumin sensitized mice; assay: Ovalbumin-induced airway eosinophil and neutrophil accumulation in mice; assay type: in vivo, BALB/c mice; settings: 2 hr prior to final OVA challenge
Procedure: BALB/c mice (6-8 weeks old) were immunized with OVA (10 μg/mouse i.p.) on days 0 and 7. In order to elicit a local inflammatory response in the lung, mice were repeatedly challenged between days 13-15 with a nebulised solution of ovalbumin (10 mg/mL, 30 min exposure, De Vilibiss Ultraneb 2000). On day 17 each animal received via intra-tracheal administration of either vehicle or test compound 2 hr prior to the final OVA challenge. Animals were anaesthetized 8 hr later before undergoing a tracheotomy. BAL was obtained by instilling PBS (1 mL) into the lungs, which was then withdrawn. This procedure was repeated to provide approximately 2 mL of lavage fluid. Total cell numbers in the BALF samples were measured using a haemocytometer. Cytospin smears of the BALF samples were prepared by centrifugation at 200 rpm for 5 min at RT and stained using a DiffQuik stain system (Dade Behring) for differential cell counts. Cells were counted using oil immersion microscopy. Data is expressed as differential number of cells per mL of […] (mean±S.E.M).

[4] = 0.2 mg/mL intra-tracheal, pre-dose time 12 h

EC50 [1]: 2.2 nM
SMILES: COCCOCCOCC#Cc1cccc2nc(Cn3nc(-c4cc(O)cc(F)c4)c4c(N)ncnc43)n(Cc3ccccc3C(F)(F)F)c(=O)c12 [Compound (I), 2-((4-Amino-3-(3-fluoro-5-hydroxyphenyl)-1H-pyrazolo[3,4-d]pyrimidin-1-yl)methyl)-5-(3-(2-(2-methoxyethoxy)ethoxy)prop-1-yn-1-yl)-3-(2-(trifluoromethyl)benzyl)quinazolin-4(3H)-one]
Neutrophil numbers in BALF, % inhibition ([2]; 0.05 mg/mL intra-tracheal, pre-dose time 2 hr): 2.3 (9) %
Neutrophil numbers in BALF, % inhibition ([2]; 0.2 mg/mL intra-tracheal, pre-dose time 2 hr): 1.6 (58) %
Neutrophil numbers in BALF, % inhibition ([2]; 0.2 mg/mL intra-tracheal, pre-dose time 8 hr): 33%
Neutrophil numbers in BALF (mean ± SEM) [2, 4]: 13.6 ± 2.7 ×10^5/mL
Neutrophil numbers in BALF, % inhibition [2, 4]: 10%
Neutrophil numbers in BALF, % inhibition ([2]; 1.0 mg/mL intra-tracheal, pre-dose time 2 hr): 73%
Cell numbers in BALF, Eosinophils, % inhibition ([3]; 0.05 mg/mL intra-tracheal): 3.2 (20) %
Cell numbers in BALF, Neutrophils, % inhibition ([3]; 0.05 mg/mL intra-tracheal): 0.4 (18) %
Cell numbers in BALF, Eosinophils, % inhibition ([3]; 0.2 mg/mL intra-tracheal): 0.9 (85) %
Cell numbers in BALF, Neutrophils, % inhibition ([3]; 0.2 mg/mL intra-tracheal): 0.5 (70) %
Cell numbers in BALF, Eosinophils, % inhibition ([3]; 1 mg/mL intra-tracheal): 91%
Cell numbers in BALF, Neutrophils, % inhibition ([3]; 1 mg/mL intra-tracheal): 80%

— patent publication US20170334919A1, “2-((4-AMINO-3-(3-FLUORO-5-HYDROXYPHENYL)-1H-PYRAZOLO[3,4-D]PYRIMIDIN-1 -YL)METHYL)-3-(2-(TRIFLUORO-MET HYL)BENZYL)QUINAZOLIN-4(3H)-ONE DERIVATIVES AND THEIR USE AS PHOSPHOINOSITIDE 3-KINASE INHIBITORS” (RESPIVERT LTD., priority 2013, published 2017)
